In patent US20190307776A1, “AZA-S[…] HUMAN IMMUNODEFICIENCY VIRUS REPLICATION” (priority 2016, published 2019) one finds EC50 data, which are given here for 14 compounds.

The assay deals with recombinant NL4-3 virus. Put plainly: HIV cell culture assay. Particulars: Human immunodeficiency virus 1, NL43, MT2. Type of assay: cell-based. The procedure:
HIV cell culture assay—MT-2 cells and 293T cells were obtained from the NIH AIDS Research and Reference Reagent Program. MT-2 cells were propagated in RPMI 1640 media supplemented with 10% heat inactivated fetal bovine serum, 100 […]. The 293T cells were propagated in DMEM media supplemented with 10% heat inactivated fetal bovine serum (FBS), 100 units/ml penicillin G and 100 μg/ml streptomycin. The proviral DNA clone of NL4-3 was obtained from the NIH AIDS Research and Reference Reagent Program. A recombinant NL4-3 virus, in which a section of the nef gene from NL4-3 was replaced with the Renilla luciferase gene, was used as a reference virus. In addition, residue Gag P373 was converted to P373S. Briefly, the recombinant virus was prepared by transfection of the altered proviral clone of NL4-3. Transfections were performed in 293T cells using LipofectAMINE PLUS from Invitrogen (Carlsbad, Calif.), according to manufacturer's instruction. The virus was titered in MT-2 cells using luciferase enzyme activity as a marker. Luciferase was quantitated using the Dual Luciferase kit from Promega (Madison, Wis.), with modifications to the manufacturer's protocol. The diluted Passive Lysis solution was pre-mixed with the re-suspended Luciferase Assay Reagent and the re-suspended Stop & Glo Substrate (2:1:1 ratio). Fifty (50) μL of the mixture was added to each aspirated well on assay plates and luciferase activity was measured immediately on a Wallac TriLux (Perkin-Elmer). Antiviral activities of inhibitors toward the recombinant virus were quantified by measuring luciferase activity in cells infected for 4-5 days with NLRluc recombinants in the presence serial dilutions of the inhibitor.
In the case of `C=C(C)[C@@H]1CC[C@]2(CNCCCN3CCS(=O)(=O)CC3)CC[C@]3(C)[C@H](CC[C@@H]4[C@@]5(C)CCN(CC(=O)O)C(C)(C)[C@@H]5CC[C@]43C)[C@@H]12` [Example 33, 2-((4aR,6aR,6bR,8aS,11R,11aR,11bR,13aR,13bR)-8a-(((3-(1,1-dioxidothiomorpholino)propyl)amino)methyl)-4,4,6a,6b,13b-pentamethyl-11-(prop-1-en-2-yl)hexadecahydro-1H-cyclopenta[5,6]naphtho[2,1-f]isoquinolin-3(2H,4H,13bH)-yl)acetic acid], the EC50 was above 3000 nM.

On to `C=C(C)[C@@H]1CC[C@]2(CNCCCN3CCS(=O)(=O)CC3)CC[C@]3(C)[C@H](CC[C@@H]4[C@@]5(C)CCN(C/C=C/C(=O)O)C(C)(C)[C@@H]5CC[C@]43C)[C@@H]12` [Example 34, (E)-4-((4aR,6aR,6bR,8aS,11R,11aR,11bR,13aR,13bR)-8a-(((3-(1,1-dioxidothiomorpholino)propyl)amino)methyl)-4,4,6a,6b,13b-pentamethyl-11-(prop-1-en-2-yl)hexadecahydro-1H-cyclopenta[5,6]naphtho[2,1-f]isoquinolin-3(2H,4H,13bH)-yl)but-2-enoic acid], for which the concentration for a half-maximal effect (EC50) is above 3000 nM.

As for `C=C(C)[C@@H]1CC[C@]2(CNCCCN3CCS(=O)(=O)CC3)CC[C@]3(C)[C@H](CC[C@@H]4[C@@]5(C)CCN(CC(=O)NC(C)(C)C(=O)O)C(C)(C)[C@@H]5CC[C@]43C)[C@@H]12` [Example 35, 2-(2-((4aR,6aR,6bR,8aS,11R,11aR,11bR,13aR,13bR)-8a-(((3-(1,1-dioxidothiomorpholino)propyl)amino)methyl)-4,4,6a,6b,13b-pentamethyl-11-(prop-1-en-2-yl)hexadecahydro-1H-cyclopenta[5,6]naphtho[2,1-f]isoquinolin-3(2H,4H,13bH)-yl)acetamido)-2-methylpropanoic acid], the EC50 was above 3000 nM.

For the compound `C=C(C)[C@@H]1CC[C@]2(CN(C)CCCN3CCS(=O)(=O)CC3)CC[C@]3(C)[C@H](CC[C@@H]4[C@@]5(C)CCN(CC(=O)NC(C)(C)C(=O)O)C(C)(C)[C@@H]5CC[C@]43C)[C@@H]12` [Example 36, 2-(2-((4aR,6aR,6bR,8aS,11R,11aR,11bR,13aR,13bR)-8a-(((3-(1,1-dioxidothiomorpholino)propyl)(methyl)amino)methyl)-4,4,6a,6b,13b-pentamethyl-11-(prop-1-en-2-yl)hexadecahydro-1H-cyclopenta[5,6]naphtho[2,1-f]isoquinolin-3(2H,4H,13bH)-yl)acetamido)-2-methylpropanoic acid], the EC50 is 1300 nM.

Regarding `C=C(C)[C@@H]1CC[C@]2(CNCCCN3CCS(=O)(=O)CC3)CC[C@]3(C)[C@H](CC[C@@H]4[C@@]5(C)CCN(C(=O)C(=O)O)C(C)(C)[C@@H]5CC[C@]43C)[C@@H]12` [Example 37, 2-((4aR,6aR,6bR,8aS,11R,11aR,11bR,13aR,13bR)-8a-(((3-(1,1-dioxidothiomorpholino)propyl)amino)methyl)-4,4,6a,6b,13b-pentamethyl-11-(prop-1-en-2-yl)hexadecahydro-1H-cyclopenta[5,6]naphtho[2,1-f]isoquinolin-3(2H,4H,13bH)-yl)-2-oxoacetic acid], the EC50 was above 3000 nM.

On to `C=C(C)[C@@H]1CC[C@]2(CNCCCN3CCS(=O)(=O)CC3)CC[C@]3(C)[C@H](CC[C@@H]4[C@@]5(C)CCN(C(=O)C(=O)NC(C)(C)C(=O)O)C(C)(C)[C@@H]5CC[C@]43C)[C@@H]12` [Example 38, 2-(2-((4aR,6aR,6bR,8aS,11R,11aR,11bR,13aR,13bR)-8a-(((3-(1,1-dioxidothiomorpholino)propyl)amino)methyl)-4,4,6a,6b,13b-pentamethyl-11-(prop-1-en-2-yl)hexadecahydro-1H-cyclopenta[5,6]naphtho[2,1-f]isoquinolin-3(2H,4H,13bH)-yl)-2-oxoacetamido)-2-methylpropanoic acid], for which the 50% effective concentration (EC50) was above 3000 nM.

For the compound `C=C(C)[C@@H]1CC[C@]2(CNCCCN3CCS(=O)(=O)CC3)CC[C@]3(C)[C@H](CC[C@@H]4[C@@]5(C)CCN(C(=O)C(=O)NC6(C(=O)O)CC6)C(C)(C)[C@@H]5CC[C@]43C)[C@@H]12` [Example 39, 1-(2-((4aR,6aR,6bR,8aS,11R,11aR,11bR,13aR,13bR)-8a-(((3-(1,1-dioxidothiomorpholino)propyl)amino)methyl)-4,4,6a,6b,13b-pentamethyl-11-(prop-1-en-2-yl)hexadecahydro-1H-cyclopenta[5,6]naphtho[2,1-f]isoquinolin-3(2H,4H,13bH)-yl)-2-oxoacetamido)cyclopropanecarboxylic acid], the EC50 is above 3000 nM.

In the case of `C=C(C)[C@@H]1CC[C@]2(CNCCCN3CCS(=O)(=O)CC3)CC[C@]3(C)[C@H](CC[C@@H]4[C@@]5(C)CCN(c6ccc(C#N)cn6)C(C)(C)[C@@H]5CC[C@]43C)[C@@H]12` [Example 40, 6-((4aR,6aR,6bR,8aS,11R,11aR,11bR,13aR,13bR)-8a-(((3-(1,1-dioxidothiomorpholino)propyl)amino)methyl)-4,4,6a,6b,13b-pentamethyl-11-(prop-1-en-2-yl)hexadecahydro-1H-cyclopenta[5,6]naphtho[2,1-f]isoquinolin-3(2H,4H,13bH)-yl)nicotinonitrile], the EC50 was 760 nM.

Turning to `C=C(C)[C@@H]1CC[C@]2(CNCCCN3CCS(=O)(=O)CC3)CC[C@]3(C)[C@H](CC[C@@H]4[C@@]5(C)CCN(c6ccc(C(N)=O)cn6)C(C)(C)[C@@H]5CC[C@]43C)[C@@H]12` [Example 41, 6-((4aR,6aR,6bR,8aS,11R,11aR,11bR,13aR,13bR)-8a-(((3-(1,1-dioxidothiomorpholino)propyl)amino)methyl)-4,4,6a,6b,13b-pentamethyl-11-(prop-1-en-2-yl)hexadecahydro-1H-cyclopenta[5,6]naphtho[2,1-f]isoquinolin-3(2H,4H,13bH)-yl)nicotinamide], the EC50 amounted to 400 nM.

`C=C(C)[C@@H]1CC[C@]2(CNCCCN3CCS(=O)(=O)CC3)CC[C@]3(C)[C@H](CC[C@@H]4[C@@]5(C)CCN(c6ccc(C(=O)O)cn6)C(C)(C)[C@@H]5CC[C@]43C)[C@@H]12` [Example 42, 6-((4aR,6aR,6bR,8aS,11R,11aR,11bR,13aR,13bR)-8a-(((3-(1,1-dioxidothiomorpholino)propyl)amino)methyl)-4,4,6a,6b,13b-pentamethyl-11-(prop-1-en-2-yl)hexadecahydro-1H-cyclopenta[5,6]naphtho[2,1-f]isoquinolin-3(2H,4H,13bH)-yl)nicotinic acid]: the EC50 was found to be 3 nM.

For `C=C(C)[C@@H]1CC[C@]2(CNCCCN3CCS(=O)(=O)CC3)CC[C@]3(C)[C@H](CC[C@@H]4[C@@]5(C)CCN(c6ccc(C#N)nc6)C(C)(C)[C@@H]5CC[C@]43C)[C@@H]12` [Example 43, 5-((4aR,6aR,6bR,8aS,11R,11aR,11bR,13aR,13bR)-8a-(((3-(1,1-dioxidothiomorpholino)propyl)amino)methyl)-4,4,6a,6b,13b-pentamethyl-11-(prop-1-en-2-yl)hexadecahydro-1H-cyclopenta[5,6]naphtho[2,1-f]isoquinolin-3(2H,4H,13bH)-yl)picolinonitrile], the half-maximal effective concentration (EC50) is 280 nM.

On to `C=C(C)[C@@H]1CC[C@]2(CNCCCN3CCS(=O)(=O)CC3)CC[C@]3(C)[C@H](CC[C@@H]4[C@@]5(C)CCN(c6ccc(C(=O)O)nc6)C(C)(C)[C@@H]5CC[C@]43C)[C@@H]12` [Example 44, 5-((4aR,6aR,6bR,8aS,11R,11aR,11bR,13aR,13bR)-8a-(((3-(1,1-dioxidothiomorpholino)propyl)amino)methyl)-4,4,6a,6b,13b-pentamethyl-11-(prop-1-en-2-yl)hexadecahydro-1H-cyclopenta[5,6]naphtho[2,1-f]isoquinolin-3(2H,4H,13bH)-yl)picolinic acid], for which the EC50 amounted to 7 nM.

Regarding `C=C(C)[C@@H]1CC[C@]2(CNCCCN3CCS(=O)(=O)CC3)CC[C@]3(C)[C@H](CC[C@@H]4[C@@]5(C)CCN(c6ccc(C(=O)O)c(F)c6)C(C)(C)[C@@H]5CC[C@]43C)[C@@H]12` [Example 45, 4-((4aR,6aR,6bR,8aS,11R,11aR,11bR,13aR,13bR)-8a-(((3-(1,1-dioxidothiomorpholino)propyl)amino)methyl)-4,4,6a,6b,13b-pentamethyl-11-(prop-1-en-2-yl)icosahdro-3H-cyclopenta[5,6]naphtho[2,1-f]isoquinolin-3-yl)-2-fluorobenzoic acid], the EC50 worked out at 20 nM.

For the compound `C=C(C)[C@@H]1CC[C@]2(CNCCCN3CCS(=O)(=O)CC3)CC[C@]3(C)[C@H](CC[C@@H]4[C@@]5(C)CCN(c6ccc([N+](=O)[O-])cc6)C(C)(C)[C@@H]5CC[C@]43C)[C@@H]12` [Example 46, 4-(3-((((4aR,6aR,6bR,8aS,11R,11aR,11bR,13aR,13bR)-4,4,6a,6b,13b-pentamethyl-3-(4-nitrophenyl)-11-(prop-1-en-2-yl)icosahydro-1H-cyclopenta[5,6]naphtho[2,1-f]isoquinolin-8a-yl)methyl)amino)propyl)thiomorpholine 1,1-dioxide], the concentration giving a half-maximal response (EC50) is above 330 nM.

One may read the EC50 as the midpoint of the concentration-response curve.
